In brackets after ≈: the same amount, converted by molar mass. Several values for one entry are separate records, joined by “and”; a condition that tells them apart may be missing. Identical values can stand only once. Like-named read-outs stand apart in the source and are kept apart here.
What was measured:
S. pyogenes = assay: MIC (microbroth dilution); type: cell-based, Streptococcus pyogenes; conditions: for MIC: Streptococcus pyogenes
Description: All bacteria were maintained on tryptic soy agar (TSA), except Streptococcus spp., which were maintained on Columbia agar plates containing 5% horse blood. All bacterial assays were carried out in tryptic soy broth (TSB), except for Streptococcus spp. which were grown in cation-adjusted Mueller Hinton broth containing 2.5% lysed horse blood. Bacteria were grown to stationary phase in liquid culture overnight, with shaking at 200 rpm, before being back diluted to the relevant starting concentration for each assay below. MICs were measured by the microbroth dilution method. […] Absorbance at OD600 was read on a CLARIOstar spectrophotometer (BMG Labtech) and the MIC was defined as the minimum concentration of compound where no visible growth was detected. The compounds were prepared as a DMSO stock and equivalent concentrations of DMSO had no effect on bacterial growth. MICs were also performed in the presence of the outer membrane permeator, polymyxin b nonapeptide (PMBN) following the same MIC method but with the following variation. The 2-fold dilution series of compound was prepared as above, then 50 μL of PMBN at a final concentration of 30 μg/mL was added to relevant wells, while 50 μL/well of blank media was added to the remaining wells. Bacteria were then added at 50 μL/well for a starting concentration as above. Thirty μg/mL of PMBN had no effect on bacterial growth. The MICs were read and defined as above. All animal procedures were performed by the contract research organization Pharmacology Discovery Services Taiwan in accordance with the Guide for the Care and Use of Laboratory Animals. The procedures were approved by the Institutional Ethics Committee of Pharmacology Discovery Services Taiwan, Ltd. (approval no. AB127662), in compliance with animal welfare legislation in Taiwan.

[1] = system: S. aureus SA-1199 WT and SA-1199B; assay: Accumulation assay; type: cell-based; conditions: SA-1199B compared to SA-1199
Description: Minor adjustments were made to the protocol previously described by Geddes and Hergenrother. After centrifugation in oil to remove excess compound, the pellets were dissolved in 200 μL of ultrapure sterile water and subjected to five freeze–thaw cycles. Each cycle consisted of 1 min in a dry ice and ethanol bath, followed by vortexing and 3 min in a heat block at 65 °C. Miles Misra viable counts were used to determine the number of colony-forming units (CFUs) for each replicate. These counts were performed for the 0.55 OD inoculum, postcompound incubation, solvent-only control, and lysates.
A 20 μL sample was injected into an Onyx monolithic C18 column and run using a gradient method. The mobile phase began with 10% acetonitrile and 90% water, with the acetonitrile content increased to 90% over 7 min, maintained for 2 min, and then returned to 10%. The area under the curve was automatically calculated using Agilent ChemStation software to determine the level of accumulation within the bacterial cells. Finally, the data were analyzed using GraphPad Prism 10.4.1. Unpaired t test was conducted to evaluate the statistical significance of the level of efflux in the efflux mutant S. aureus 1199B strain compared to the wild-type S. aureus 1199 strain.

K. pneumoniae = assay: Mutation frequency and agar MIC; type: cell-based; conditions: M6
Description: Mutation frequencies were performed on solid media at supra-inhibitory concentrations. First, the agar MIC was performed to account for any issues in solubility of compounds in solid media. Agar plates were prepared with 2-fold dilutions of compound.
For the mutation frequency assay, bacteria from an overnight culture were grown to mid exponential phase in liquid broth, then 100 μL was spread onto an agar plate containing compound at concentrations above the agar MIC. A Miles-Misra was also conducted on an antibiotic-free agar plate to determine the CFU/mL of the starting population. […] The mutation frequency was calculated by dividing the number of colonies on supra inhibitory con-centration plates by the starting population.

[2] = Kinetic aqueous solubility; type: physicochemical; conditions: phosphate-buffered saline with 2% DMSO, pH 7.4, aqueous buffer, kinetic from dmso stock
Description: Kinetic aqueous solubility was determined using a standard LC-UV/MS-based assay. Test compounds were prepared from 10 mM DMSO stock solutions and diluted to a nominal concentration of 200 μM in phosphate-buffered saline (PBS, pH 7.4) containing 2% DMSO. Parallel dilutions in DMSO were used as reference standards. Samples were equilibrated at room temperature for 2 h with shaking, then filtered, and the filtrates were analyzed by LC-UV with mass spectrometric confirmation of the analyte peak. Solubility was determined by comparing the UV peak area of the PBS filtrate with those of the DMSO reference standards. The effective range of the assay was 10–200 μM.

[3] = Plasma protein binding (RED); type: in vitro ADME; conditions: pH 7.4
Description: Plasma protein binding was measured using a Rapid Equilibrium Dialysis (RED) assay. Test compounds and control compounds were added to plasma at 10 μM and dialyzed against phosphate-buffered saline (PBS, pH 7.4) for 4 h at 37 °C. […] The percentage of drug bound to plasma proteins was calculated by comparing the analyte response in the plasma compartment with that in the buffer compartment.

in vivo = conditions: male, mouse, po
[4] = Maximum tolerated dose study; conditions: for B.W.: animals N 1-3;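 on all read-outs here: male ICR mice given oral doses under a stepwise escalation scheme to find the highest tolerated dose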
[5] = Murine thigh infection model; conditions: oral 50 mg/kg at 2, 8, and 14 h postinfection, at 26 h
[6] = PO 100 mg/kg, 72 hrs after final dose, 100 mg/kg
[7] = PO 100 mg/kg, Pre-dose, 100 mg/kg
[8] = PO 200 mg/kg, 72 hrs after final dose, 200 mg/kg
[9] = PO 200 mg/kg, Pre-dose, 200 mg/kg
[10] = PO 400 mg/kg, 72 hrs after final dose, 400 mg/kg
[11] = PO 400 mg/kg, Pre-dose, 400 mg/kg

Compound: C[C@H]1COc2c(N3CC[C@@H](Nc4ncccn4)C3)c(F)cc3c(=O)c(C(=O)O)cn1c23 [Compound 46, (S)-9-Fluoro-3-methyl-7-oxo-10-((R)-3-(pyrimidin-2-ylamino)pyrrolidin-1-yl)-2,3-dihydro-7H-[1,4]oxazino[2,3,4-ij]quinoline-6-carboxylic acid]
- MIC (S. pyogenes; 8198, read-out: MIC): ≤ 0.03 mg/L
- MIC (S. pyogenes; 12048): 0.03 to 0.125 mg/L (≈ 0.0705 to 0.294 µM)
- MIC (S. pyogenes; 13736, read-out: MIC): 0.06 mg/L (≈ 0.141 µM)
- MIC (S. pyogenes; 13737): 0.125 mg/L (≈ 0.294 µM)
- MIC (S. pyogenes; 13738): 0.125 mg/L (≈ 0.294 µM)
- MIC (S. pyogenes; 80661): 0.06 to 0.125 mg/L (≈ 0.141 to 0.294 µM)
- MIC (S. pyogenes; 81017): 0.125 mg/L (≈ 0.294 µM)
- MIC (S. pyogenes; 82434, read-out: MIC): 0.06 mg/L (≈ 0.141 µM)
- MIC (S. pyogenes; 82896, read-out: MIC): 0.06 mg/L (≈ 0.141 µM)
- MIC (S. pyogenes; 83581): 0.06 to 0.125 mg/L (≈ 0.141 to 0.294 µM)
- MIC (S. pyogenes; 84285, read-out: MIC): 0.06 mg/L (≈ 0.141 µM)
- MIC (S. pyogenes; 86519): 0.125 mg/L (≈ 0.294 µM)
- MIC range (S. pyogenes; n = 12 isolates): 0.06 to 0.125 mg/L
- level of accumulation [1]: no significant change in accumulation
- Agar MIC (K. pneumoniae): 0.5 mg/L
- solubility at 2 h [2]: 183 µM (≈ 77.9 µg/mL)
- fraction unbound at 4 h, 10 μM [3]: 0.42
- MTD at 72 h (in vivo; ICR): ≥ 400 mg/kg
- B.W. [4, 6]: 25 and 27
- B.W. [4, 7]: 24 and 25
- B.W. [4, 8]: 26 and 27
- B.W. [4, 9]: 24 and 23
- B.W. [4, 10]: 26 and 22 and 24
- B.W. [4, 11]: 21 and 20 and 22
- bacterial counts in thigh [5]: 3.19 log10 CFU/g
- reduction relative to vehicle ([5]; 50 mg/kg): 5.17 log10 CFU/g and > 4 log10 CFU/g

Compound: Cc1cc(C)nc(N[C@@H]2CCN(c3c(F)cc4c(=O)c(C(=O)O)cn5c4c3OC[C@@H]5C)C2)n1 [Compound 50, (S)-10-((R)-3-((4,6-Dimethylpyrimidin-2-yl)amino)pyrrolidin-1-yl)-9-fluoro-3-methyl-7-oxo-2,3-dihydro-7H-[1,4]oxazino[2,3,4-ij]quinoline-6-carboxylic acid]
- MIC (S. pyogenes; 8198, read-out: MIC): ≤ 0.03 mg/L
- MIC (S. pyogenes; 12048, read-out: MIC): ≤ 0.03 mg/L
- MIC (S. pyogenes; 13736, read-out: MIC): ≤ 0.03 mg/L
- MIC (S. pyogenes; 13737): 0.125 mg/L (≈ 0.276 µM)
- MIC (S. pyogenes; 13738): 0.125 mg/L (≈ 0.276 µM)
- MIC (S. pyogenes; 80661, read-out: MIC): ≤ 0.03 mg/L
- MIC (S. pyogenes; 81017, read-out: MIC): 0.06 mg/L (≈ 0.132 µM)
- MIC (S. pyogenes; 82434, read-out: MIC): ≤ 0.03 mg/L
- MIC (S. pyogenes; 82896, read-out: MIC): ≤ 0.03 mg/L
- MIC (S. pyogenes; 83581, read-out: MIC): ≤ 0.03 mg/L
- MIC (S. pyogenes; 84285, read-out: MIC): ≤ 0.03 mg/L
- MIC (S. pyogenes; 86519, read-out: MIC): 0.06 mg/L (≈ 0.132 µM)
- MIC (S. pyogenes; ATCC14289, ATCC 14289): 0.125 mg/L (≈ 0.276 µM)
- MIC (S. pyogenes; ATCC19615, ATCC 19615): 0.125 mg/L (≈ 0.276 µM)
- MIC (S. pyogenes; n = 12 isolates, read-out: modal MIC): ≤ 0.03 mg/L
- MIC range (S. pyogenes; n = 12 isolates): ≤ 0.03 to 0.125 mg/L
- solubility at 2 h [2]: 156 µM (≈ 70.6 µg/mL)
- fraction unbound at 4 h, 10 μM [3]: 0.28
- MTD at 72 h (in vivo): ≥ 400 mg/kg
- Response (death/test) ([4]; PO 100 mg/kg, 1 hr after 1st dosing): 0/3
- Response (death/test) ([4]; PO 100 mg/kg, 1 hr after 2nd dosing): 0/3
- Response (death/test) ([4]; PO 100 mg/kg, 1 hr after 3rd dosing): 0/3
- Response (death/test) ([4]; PO 100 mg/kg, 2 hrs after 3rd dosing): 0/3
- Response (death/test) ([4]; PO 100 mg/kg, 6 hrs after 1st dosing): 0/3
- Response (death/test) ([4]; PO 100 mg/kg, 6 hrs after 2nd dosing): 0/3
- Response (death/test) ([4]; PO 100 mg/kg, 24 hrs after 3rd dosing): 0/3
- Response (death/test) ([4]; PO 100 mg/kg, 48 hrs after 3rd dosing): 0/3
- Response (death/test) ([4]; PO 100 mg/kg, 72 hrs after 3rd dosing): 0/3
- B.W. [4, 6]: 24 and 25
- B.W. [4, 7]: 24 and 23
- Response (death/test) ([4]; PO 200 mg/kg, 1 hr after 1st dosing): 0/3
- Response (death/test) ([4]; PO 200 mg/kg, 1 hr after 2nd dosing): 0/3
- Response (death/test) ([4]; PO 200 mg/kg, 1 hr after 3rd dosing): 0/3
- Response (death/test) ([4]; PO 200 mg/kg, 2 hrs after 3rd dosing): 0/3
- Response (death/test) ([4]; PO 200 mg/kg, 6 hrs after 1st dosing): 0/3
- Response (death/test) ([4]; PO 200 mg/kg, 6 hrs after 2nd dosing): 0/3
- Response (death/test) ([4]; PO 200 mg/kg, 24 hrs after 3rd dosing): 0/3
- Response (death/test) ([4]; PO 200 mg/kg, 48 hrs after 3rd dosing): 0/3
- Response (death/test) ([4]; PO 200 mg/kg, 72 hrs after 3rd dosing): 0/3
- B.W. [4, 8]: 25 and 28
- B.W. [4, 9]: 23 and 24
- Response (death/test) ([4]; PO 400 mg/kg, 1 hr after 1st dosing): 0/3
- Response (death/test) ([4]; PO 400 mg/kg, 1 hr after 2nd dosing): 0/3
- Response (death/test) ([4]; PO 400 mg/kg, 1 hr after 3rd dosing): 0/3
- Response (death/test) ([4]; PO 400 mg/kg, 2 hrs after 3rd dosing): 0/3
- Response (death/test) ([4]; PO 400 mg/kg, 6 hrs after 1st dosing): 0/3
- Response (death/test) ([4]; PO 400 mg/kg, 6 hrs after 2nd dosing): 0/3
- Response (death/test) ([4]; PO 400 mg/kg, 24 hrs after 3rd dosing): 0/3
- Response (death/test) ([4]; PO 400 mg/kg, 48 hrs after 3rd dosing): 0/3
- Response (death/test) ([4]; PO 400 mg/kg, 72 hrs after 3rd dosing): 0/3
- B.W. [4, 10]: 25 and 23
- B.W. [4, 11]: 20 and 21

Compound: C[C@H]1COc2c(N3CCN(C)CC3)c(F)cc3c(=O)c(C(=O)O)cn1c23 [Levofloxacin, (S)-9-Fluoro-3-methyl-10-(4-methylpiperazin-1-yl)-7-oxo-2,3-dihydro-7H-[1,4]oxazino[2,3,4-ij]quinoline-6-carboxylic acid, reference compound]
- level of accumulation [1]: lower in the NorA-overexpressing SA-1199B strain
- Agar MIC (K. pneumoniae): 0.03 mg/L
- bacterial counts in thigh [5]: 3.28 log10 CFU/g
